Patent publication US8822449B2, “Substituted aminoindanes and analogs thereof, and the pharmaceutical use thereof” (Sanofi, priority 2008, dated 2014)
Read-outs that look alike come from different tables or passages of the source.

Target: T1, sodium-proton exchanger of subtype 3 (NHE3) (Homo sapiens, UniProt P48764)
T1 construct: expressed in transfected cells
T1 sequence (P48764 26-834): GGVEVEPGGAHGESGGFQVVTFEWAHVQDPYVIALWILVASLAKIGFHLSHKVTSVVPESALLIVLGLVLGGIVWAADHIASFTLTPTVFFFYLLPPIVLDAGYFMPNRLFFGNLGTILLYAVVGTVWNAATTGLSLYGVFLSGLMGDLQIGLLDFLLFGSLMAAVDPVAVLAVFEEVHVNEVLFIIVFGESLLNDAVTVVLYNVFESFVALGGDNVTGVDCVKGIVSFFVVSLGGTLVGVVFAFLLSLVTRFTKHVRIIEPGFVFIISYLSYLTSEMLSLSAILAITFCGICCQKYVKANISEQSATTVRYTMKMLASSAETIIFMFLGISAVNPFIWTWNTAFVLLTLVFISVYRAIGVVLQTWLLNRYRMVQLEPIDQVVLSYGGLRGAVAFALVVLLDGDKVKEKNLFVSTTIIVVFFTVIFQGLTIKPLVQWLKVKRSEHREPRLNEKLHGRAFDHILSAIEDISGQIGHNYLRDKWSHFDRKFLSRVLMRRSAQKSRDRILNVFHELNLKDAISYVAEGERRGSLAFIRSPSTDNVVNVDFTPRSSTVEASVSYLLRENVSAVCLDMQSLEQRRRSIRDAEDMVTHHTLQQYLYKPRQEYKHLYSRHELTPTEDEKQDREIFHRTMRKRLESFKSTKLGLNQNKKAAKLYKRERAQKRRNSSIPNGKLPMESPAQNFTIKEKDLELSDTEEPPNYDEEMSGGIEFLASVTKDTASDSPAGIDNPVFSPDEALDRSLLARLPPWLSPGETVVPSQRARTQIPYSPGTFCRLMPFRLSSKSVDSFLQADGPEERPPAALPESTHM
Experiment: Recovery of intracellular pH (pHi) after acidification in LAP1 cells stably expressing NHE3 (BCECF fluorescence, FLIPR)
Type: cell-based
Details: LAP1 cells stably expressing NHE3, pH recovery after acidification, range 1 is % inhibition at 10 μM

[1] = read-out: Activity range (inhibitory effect on NHE3)

Row | SMILES | IC50 [1] [nM] | also measured
1 | N#Cc1ccc(O[C@H]2c3ccccc3CC[C@@H]2N2CCC[C@H](N)C2)cc1Cl (racemic) [Example 529, 4-[rac-trans-(1,2)-2-((S)-3-aminopiperidin-1-yl)-1,2,3,4-tetrahydronaphthalen-1-yloxy]-2-chlorobenzonitrile] | – | inhibition at 10 µM [1]: 20 to 50%
2 | N[C@@H]1CCCN([C@H]2CCc3ccccc3[C@@H]2Oc2cccc3ccc(Cl)nc23)C1 (racemic) [Example 41, (R)-1-[rac-trans-(1,2)-1-(2-chloroquinolin-8-yloxy)-1,2,3,4-tetrahydronaphthalen-2-yl]piperidin-3-ylamine] | 1000 to 10000 | –
3 | CS(=O)(=O)c1ccc(O[C@H]2c3ccccc3C[C@@H]2N2CCC[C@@H](N)C2)cc1 [Example 95, (R)-1-[trans-(1S,2S)-1-(4-methanesulfonylphenoxy)indan-2-yl]piperidin-3-ylamine] | < 1000 | –
4 | Clc1cc(Cl)c2c(c1)[C@H](Oc1cccc(-n3cnnn3)c1)[C@@H](N1CCNCC1)C2 [Example 248, 1-[(1S,2S)-4,6-dichloro-1-(3-tetrazol-1-ylphenoxy)indan-2-yl]piperazine] | < 1000 | –
5 | N[C@H]1CCCN([C@H]2CCc3ccccc3[C@@H]2Oc2ccc(N3CCNCC3)cc2)C1 (racemic) [Example 184, (S)-1-[rac-trans-(1,2)-1-(4-piperazin-1-ylphenoxy)-1,2,3,4-tetrahydronaphthalen-2-yl]piperidin-3-ylamine] | – | inhibition at 10 µM [1]: 20 to 50%
6 | Cc1nnc(C)n1-c1ccc(O[C@H]2c3ccccc3C[C@@H]2N2CCCC2)c(Cl)c1 [Example 491, 4-[3-chloro-4-(trans-(1S,2S)-2-pyrrolidin-1-ylindan-1-yloxy)phenyl]-3,5-dimethyl-4H-[1,2,4]triazole] | < 1000 | –
7 | NCC1CCN([C@@H]2Cc3ccccc3[C@H]2Oc2ccc(Br)cc2-c2cc[nH]n2)C1 (mixture of isomers) [Example 600, C-(1-{rac-trans-(1,2)-1-[4-bromo-2-(1H-pyrazol-3-yl)phenoxy]indan-2-yl}pyrrolidin-3-yl)methylamine] | 1000 to 10000 | –
8 | CN1CCN(c2cccc(O[C@H]3c4cc(Cl)cc(Cl)c4C[C@@H]3N3CCNCC3)c2)C1=O (racemic) [Example 258, 1-[3-(rac-trans-(1,2)-4,6-dichloro-2-piperazin-1-ylindan-1-yloxy)phenyl]-3-methylimidazolidin-2-one] | < 1000 | –
9 | NCC1CCN([C@@H]2Cc3ccccc3[C@H]2Oc2ccc(-n3cncn3)cc2)C1 (mixture of isomers) [Example 618, C-{1-[rac-trans-(1,2)-1-(4-[1,2,4]triazol-1-ylphenoxy)indan-2-yl]pyrrolidin-3-yl}methylamine] | 1000 to 10000 | –
10 | CN(C)S(=O)(=O)c1ccc(O[C@@H]2c3ccccc3C[C@H]2N2CCCC2)c(Cl)c1Cl (racemic) [Example 362, 2,3-dichloro-N,N-dimethyl-4-(rac-trans-(1,2)-2-pyrrolidin-1-ylindan-1-yloxy)benzenesulfonamide] | – | IC50 (Activity range (inhibitory effect on NHE3)): < 1000 nM
11 | CS(=O)(=O)c1ccc(O[C@H]2c3cc(Cl)cc(F)c3C[C@@H]2N2CCNCC2)cc1 (racemic) [Example 292, 1-[rac-trans-(1,2)-6-chloro-4-fluoro-1-(4-methanesulfonylphenoxy)indan-2-yl]piperazine] | < 1000 | –
12 | Cc1nnc(C)n1-c1ccc(F)c(O[C@H]2c3cc(Cl)cc(Cl)c3C[C@@H]2N2CC[C@@H](O)C2)c1 [Example 114, (R)-1-{(1S,2S)-4,6-dichloro-1-[5-(3,5-dimethyl-[1,2,4]triazol-4-yl)-2-fluorophenoxy]indan-2-yl}pyrrolidin-3-ol] | 1000 to 10000 | –
13 | NS(=O)(=O)c1ccc(O[C@H]2c3ccccc3C[C@@H]2N2CCCC2)c(Cl)c1 (racemic) [Example 444, 3-chloro-4-(rac-trans-(1,2)-2-pyrrolidin-1-ylindan-1-yloxy)benzenesulfonamide] | < 1000 | –
14 | N#Cc1cc(Cl)ccc1O[C@@H]1c2ccccc2C[C@H]1N1CCC(N)C1 (mixture of isomers) [Example 375, 2-[rac-trans-(1,2)-2-(3-aminopyrrolidin-1-yl)indan-1-yloxy]-5-chlorobenzonitrile] | 1000 to 10000 | –
15 | O=C1COC(=O)N1c1ccc(O[C@H]2c3cc(Cl)cc(Cl)c3C[C@@H]2N2CC[C@@H](O)C2)c(Cl)c1 [Example 424, 3-{3-chloro-4-[(1S,2S)-4,6-dichloro-2-((R)-3-hydroxypyrrolidin-1-yl)indan-1-yloxy]phenyl}oxazolidine-2,4-dione] | < 1000 | –
16 | NCC1CCN([C@@H]2Cc3ccccc3[C@H]2Oc2cccc(N3CCNCC3)c2)C1 (mixture of isomers) [Example 617, C-{1-[rac-trans-(1,2)-1-(3-piperazin-1-ylphenoxy)indan-2-yl]pyrrolidin-3-yl}methylamine] | 1000 to 10000 | –
17 | CS(=O)(=O)c1ccc(O[C@H]2c3ccccc3C[C@@H]2NCc2ccccc2)cc1 (racemic) [Example 597, benzyl[1-(4-methanesulfonylphenoxy)indan-2-yl]amine] | – | inhibition at 10 µM [1]: 20 to 50%
18 | CS(=O)(=O)c1ccccc1O[C@H]1c2ccccc2CC[C@@H]1N1CCC[C@H](N)C1 (racemic) [Example 156, (S)-1-[rac-trans-(1,2)-1-(2-methanesulfonylphenoxy)-1,2,3,4-tetrahydronaphthalen-2-yl]piperidin-3-ylamine] | – | inhibition at 10 µM [1]: 20 to 50%
19 | CCc1nc(C)cn1-c1ccc(O[C@H]2c3cc(Cl)cc(Cl)c3C[C@@H]2N2CC[C@@H](O)C2)cc1 [Example 712, (R)-1-{trans-(1S,2S)-4,6-Dichloro-1-[4-(2-ethyl-4-methyl-imidazol-1-yl)-phenoxy]-indan-2-yl}-pyrrolidin-3-ol] | 1000 to 10000 | –
20 | Cc1cc(O[C@H]2c3ccccc3C[C@@H]2N2CCCC2)ccc1S(C)(=O)=O (racemic) [Example 271, 1-[rac-trans-(1,2)-1-(4-methanesulfonyl-3-methylphenoxy)indan-2-yl]pyrrolidine] | 1000 to 10000 | –
21 | CS(=O)(=O)c1ccc(O[C@H]2c3cc(F)cc(Cl)c3C[C@@H]2N2CCNCC2)cc1 (racemic) [Example 283, 1-[rac-trans-(1,2)-4-chloro-6-fluoro-1-(4-methanesulfonylphenoxy)indan-2-yl]piperazine] | < 1000 | –
22 | Cc1cn(-c2ccc(O[C@H]3c4cc(Cl)cc(F)c4C[C@@H]3N3CC[C@@H](O)C3)cc2)c(C(C)C)n1 [Example 720, (R)-1-{trans-(1S,2S)-6-Chloro-4-fluoro-1-[4-(2-isopropyl-4-methyl-imidazol-1-yl)-phenoxy]-indan-2-yl}-pyrrolidin-3-ol] | 1000 to 10000 | –
23 | CC(=O)Nc1cccc(O[C@H]2c3cccc(C)c3C[C@@H]2N2CCCC2)c1 (racemic) [Example 653, N-[3-(rac-trans-(1,2)-4-methyl-2-pyrrolidin-1-ylindan-1-yloxy)phenyl]acetamide] | 1000 to 10000 | –
24 | N#Cc1ccc(O[C@H]2c3cc(Cl)cc(Cl)c3C[C@@H]2N2CCNCC2)c(F)c1 [Example 456, 4-((1S,2S)-4,6-dichloro-2-piperazin-1-ylindan-1-yloxy)-3-fluorobenzonitrile] | < 1000 | –
25 | COc1cccc(F)c1O[C@H]1c2ccccc2CC[C@@H]1N1CCC[C@@H](N)C1 (racemic) [Example 44, (R)-1-[rac-trans-(1,2)-1-(2-fluoro-6-methoxyphenoxy)-1,2,3,4-tetrahydronaphthalen-2-yl]piperidin-3-ylamine] | – | inhibition at 10 µM [1]: 20 to 50%
26 | CSc1ccc(O[C@H]2c3ccccc3CC[C@@H]2N2CCC[C@@H](N)C2)cc1 (racemic) [Example 74, (R)-1-[rac-trans-(1,2)-1-(4-methylsulfanylphenoxy)-1,2,3,4-tetrahydronaphthalen-2-yl]piperidin-3-ylamine] | – | inhibition at 10 µM [1]: 20 to 50%
27 | COC(=O)c1ccc(O[C@H]2c3ccccc3CC[C@@H]2N2CCC[C@@H](N)C2)c(Cl)c1 (racemic) [Example 513, 4-[rac-trans-(1,2)-2-((R)-3-aminopiperidin-1-yl)-1,2,3,4-tetrahydronaphthalen-1-yloxy]-3-chlorobenzoic acid methyl ester] | – | inhibition at 10 µM [1]: 20 to 50%
28 | COC[C@@H]1CCCN1[C@H]1Cc2c(Cl)cc(Cl)cc2[C@@H]1Oc1ccc(-n2c(C)nnc2C)cc1 [Example 562, 4-{4-[trans-(1S,2S)-4,6-dichloro-2-((S)-2-methoxymethylpyrrolidin-1-yl)indan-1-yloxy]phenyl}-3,5-dimethyl-4H-[1,2,4]triazole] | 1000 to 10000 | –
29 | CC(=O)Nc1cccc(O[C@H]2c3cc(Cl)cc(Cl)c3C[C@@H]2N2CCC[C@@H](N)C2)c1 [Example 690, N-{3-[trans-(1S,2S)-2-((R)-3-aminopiperidin-1-yl)-4,6-dichloroindan-1-yloxy]phenyl}acetamide] | < 1000 | –
30 | COc1cc(Cl)cc(O[C@@H]2c3ccccc3C[C@H]2N2CCC[C@H](N)C2)c1 (racemic) [Example 164, (S)-1-[rac-trans-(1,2)-1-(3-chloro-5-methoxyphenoxy)indan-2-yl]piperidin-3-ylamine] | 1000 to 10000 | –
